What was measured:
Type in all cases: in vivo
[1] = tested on: E. black nightshade (SOLPT; Solanum ptycanthum); test: Test H postemergence, mixtures of Cpd. No. 20 with atrazine or glyphosate
Description: (§1) This test evaluated the effect of mixtures of Cpd. No. 20 with atrazine or glyphosate on several plant species. Seeds of plant species selected from corn (ZEAMD; Zea mays, cv. ‘Pioneer 1184’), soybean (GLXMA; Glycine max, cv. Pioneer 35T58), giant foxtail (SETFA; Setaria faberi), Surinamgrass (BRADC; Brachiaria decumbens), fall panicum (PANDI; Panicum dichotomiflorum), velvetleaf (ABUTH; Abutilon threophrasti), mare's tail (ERICA; Conyza canadensis), barnyardgrass (ECHCG; Echinochloa crus-galli), large crabgrass (DIGSA; Digitaria sanguinalis), palmer amaranth (AMAPA; Amaranthus palmeri), common waterhemp (AMATU; Amaranthus rudis), E. black nightshade (SOLPT; Solanum ptycanthum), and common ragweed (AMBEL; Ambrosia artemisiifolia) were planted in pots containing Redi-Earth® planting medium (Scotts Company, 14111 Scottslawn Road, Marysville, Ohio 43041) comprising spaghnum peat moss, vermiculite, wetting agent and starter nutrients and treated postemergence using test chemicals formulated in a non-phytotoxic solvent mixture which included a surfactant. Plants ranged in height from 2 to 10 cm and were in the one- to two-leaf stage for the postemergence treatment. Treated plants and untreated controls were maintained in a greenhouse for approximately 14 d, after which time all treated plants were compared to untreated controls and visually evaluated for injury. Plant response ratings, summarized in Tables H1 & H2, are based on a 0 to 100 scale where 0 is no effect and 100 is complete control. A dash (-) response means no test result. Test results are presented as a mean of 4 reps.

[2] = tested on: Surinamgrass (BRADC; Brachiaria decumbens); test: as above
Description: as §1

[3] = tested on: barnyardgrass (ECHCG; Echinochloa crus-galli); test: as above
Description: as §1

[4] = tested on: common ragweed (AMBEL; Ambrosia artemisiifolia); test: as above
Description: as §1

[5] = tested on: common waterhemp (AMATU; Amaranthus rudis); test: as above
Description: as §1

[6] = tested on: giant foxtail (SETFA; Setaria faberi); test: as above
Description: as §1

[7] = tested on: mare's tail (ERICA; Conyza canadensis); test: as above
Description: as §1

[8] = tested on: soybean (GLXMA; Glycine max, cv. Pioneer 35T58); test: as above
Description: as §1

[9] = tested on: velvetleaf (ABUTH; Abutilon threophrasti); test: as above
Description: as §1

[10] = tested on: common ragweed (AMBEL; Ambrosia artemisiifolia); test: Test J pre-/postemergence, mixtures of Cpd. No. 20 with (b15C2)
Description: (§2) This test evaluated the effect of mixtures of Cpd. No. 20 with (b15C2) on several plant species. Seeds of plant species selected from corn (ZEAMD; Zea mays, cv. ‘Pioneer 1184’), soybean (GLXMA; Glycine max, cv. Pioneer 35T58), giant foxtail (SETFA; Setaria faberi), palmer amaranth (AMAPA; Amaranthus palmeri), common waterhemp (AMATU; Amaranthus rudis), mare's tail (ERICA; Conyza canadensis), and common ragweed (AMBEL; Ambrosia artemisiifolia) were planted in pots containing Tama Silt Loam soil and treated preemergence with a directed soil spray using test chemicals formulated in a non-phytotoxic solvent mixture which included a surfactant.
(§3) At the same time, plants selected from these crop and weed species were planted in pots containing Redi-Earth® planting medium (Scotts Company, 14111 Scottslawn Road, Marysville, Ohio 43041) comprising spaghnum peat moss, vermiculite, wetting agent and starter nutrients and treated postemergence with test chemicals formulated in the same manner. Plants ranged in height from 2 to 10 cm and were in the one- to two-leaf stage for the postemergence treatment. Treated plants and untreated controls were maintained in a greenhouse for approximately 14-21 d, after which time all treated plants were compared to untreated controls and visually evaluated for injury. Plant response ratings, summarized in Tables J1 & J2, are based on a 0 to 100 scale where 0 is no effect and 100 is complete control. A dash (-) response means no test result. Test results are presented as a mean of 4 reps.

[11] = tested on: corn (ZEAMD; Zea mays, cv. ‘Pioneer 1184’); test: as above
Description: as §2, §3

[12] = tested on: giant foxtail (SETFA; Setaria faberi); test: as above
Description: as §2, §3

[13] = tested on: mare's tail (ERICA; Conyza canadensis); test: as above
Description: as §2, §3

[14] = tested on: soybean (GLXMA; Glycine max, cv. Pioneer 35T58); test: as above
Description: as §2, §3

In the case of `Cc1ccc2ccc(C)c(-c3c(O)c(Cl)nn(C)c3=O)c2c1` [Cpd. No. 20, 6-chloro-4-(2,7-dimethyl-1-naphthalenyl)-5-hydroxy-2-methyl-3(2H)-pyridazinone], the “Observed result (plant response rating), SOLPT” value (“Observed result … SOLPT” for short) ([1]; applied alone at 31 g a.i./ha) is reported as 86, the “Observed result … SOLPT” value ([1]; applied alone at 62 g a.i./ha) is reported as 93 and the “Observed result … SOLPT” value ([1]; applied alone at 125 g a.i./ha) is reported as 95. The “Observed result (plant response rating), BRADC” value (from here on “Observed result … BRADC”) ([2]; applied alone at 31 g a.i./ha) was 73, the “Observed result … BRADC” value ([2]; applied alone at 62 g a.i./ha) was 84 and the “Observed result … BRADC” value ([2]; applied alone at 125 g a.i./ha) was 93. The “Observed result (plant response rating), ECHCG” value (from here on “Observed result … ECHCG”) ([3]; applied alone at 31 g a.i./ha) was 100, the “Observed result … ECHCG” value ([3]; applied alone at 62 g a.i./ha) was 100 and the “Observed result … ECHCG” value ([3]; applied alone at 125 g a.i./ha) was 100. For the same compound, the “Observed result (plant response rating), AMBEL” value (from here on “Observed result … AMBEL”) ([4]; applied alone at 31 g a.i./ha) was 89, the “Observed result … AMBEL” value ([4]; applied alone at 62 g a.i./ha) was 94 and the “Observed result … AMBEL” value ([4]; applied alone at 125 g a.i./ha) was 98. For the same compound, the “Observed result (plant response rating), AMATU” value (from here on “Observed result … AMATU”) ([5]; applied alone at 31 g a.i./ha) was 70, the “Observed result … AMATU” value ([5]; applied alone at 62 g a.i./ha) was 80 and the “Observed result … AMATU” value ([5]; applied alone at 125 g a.i./ha) was 80. For the same compound, the “Observed result (plant response rating), SETFA” value (from here on “Observed result … SETFA”) ([6]; applied alone at 31 g a.i./ha) was 71, the “Observed result … SETFA” value ([6]; applied alone at 62 g a.i./ha) was 79 and the “Observed result … SETFA” value ([6]; applied alone at 125 g a.i./ha) was 80. The “Observed result (plant response rating), ERICA” value (from here on “Observed result … ERICA”) ([7]; applied alone at 31 g a.i./ha) was 85, the “Observed result … ERICA” value ([7]; applied alone at 62 g a.i./ha) was 85 and the “Observed result … ERICA” value ([7]; applied alone at 125 g a.i./ha) was 88. For the same compound, the “Observed result (plant response rating), GLXMA” value (from here on “Observed result … GLXMA”) ([8]; applied alone at 31 g a.i./ha) was 30, the “Observed result … GLXMA” value ([8]; applied alone at 62 g a.i./ha) was 21 and the “Observed result … GLXMA” value ([8]; applied alone at 125 g a.i./ha) was 18. The “Observed result (plant response rating), ABUTH” value (from here on “Observed result … ABUTH”) ([9]; applied alone at 31 g a.i./ha) was 76, the “Observed result … ABUTH” value ([9]; applied alone at 62 g a.i./ha) was 89 and the “Observed result … ABUTH” value ([9]; applied alone at 125 g a.i./ha) was 94. For the same compound, the “AMBEL plant response rating, 0 to 100 scale” value (from here on “AMBEL plant response rating”) ([10]; postemergence, 8 g a.i./ha) was 86, the “AMBEL plant response rating” value ([10]; postemergence, 16 g a.i./ha) was 93 and the “AMBEL plant response rating” value ([10]; postemergence, 31 g a.i./ha) was 91. The “AMBEL plant response rating” value ([10]; postemergence, 62 g a.i./ha) was 95, the “AMBEL plant response rating” value ([10]; preemergence, 8 g a.i./ha) was 0 and the “AMBEL plant response rating” value ([10]; preemergence, 16 g a.i./ha) was 100. For the same compound, the “AMBEL plant response rating” value ([10]; preemergence, 31 g a.i./ha) was 86, the “AMBEL plant response rating” value ([10]; preemergence, 62 g a.i./ha) was 96 and the “ZEAMD plant response rating, 0 to 100 scale” value (shortened to “ZEAMD plant response rating”) ([11]; postemergence, 8 g a.i./ha) was 0. The “ZEAMD plant response rating” value ([11]; postemergence, 16 g a.i./ha) was 0, the “ZEAMD plant response rating” value ([11]; postemergence, 31 g a.i./ha) was 0 and the “ZEAMD plant response rating” value ([11]; postemergence, 62 g a.i./ha) was 0. For the same compound, the “ZEAMD plant response rating” value ([11]; preemergence, 8 g a.i./ha) was 0, the “ZEAMD plant response rating” value ([11]; preemergence, 16 g a.i./ha) was 0 and the “ZEAMD plant response rating” value ([11]; preemergence, 31 g a.i./ha) was 0. For the same compound, the “ZEAMD plant response rating” value ([11]; preemergence, 62 g a.i./ha) was 0, the “SETFA plant response rating, 0 to 100 scale” value (“SETFA plant response rating” below) ([12]; postemergence, 8 g a.i./ha) was 34 and the “SETFA plant response rating” value ([12]; postemergence, 16 g a.i./ha) was 69. For the same compound, the “SETFA plant response rating” value ([12]; postemergence, 31 g a.i./ha) was 75, the “SETFA plant response rating” value ([12]; postemergence, 62 g a.i./ha) was 80 and the “SETFA plant response rating” value ([12]; preemergence, 8 g a.i./ha) was 15. For the same compound, the “SETFA plant response rating” value ([12]; preemergence, 16 g a.i./ha) was 63, the “SETFA plant response rating” value ([12]; preemergence, 31 g a.i./ha) was 78 and the “SETFA plant response rating” value ([12]; preemergence, 62 g a.i./ha) was 89. For the same compound, the “ERICA plant response rating, 0 to 100 scale” value (from here on “ERICA plant response rating”) ([13]; postemergence, 8 g a.i./ha) was 85, the “ERICA plant response rating” value ([13]; postemergence, 16 g a.i./ha) was 90 and the “ERICA plant response rating” value ([13]; postemergence, 31 g a.i./ha) was 90. The “ERICA plant response rating” value ([13]; postemergence, 62 g a.i./ha) was 90, the “ERICA plant response rating” value ([13]; preemergence, 8 g a.i./ha) was 58 and the “ERICA plant response rating” value ([13]; preemergence, 16 g a.i./ha) was 90. For the same compound, the “ERICA plant response rating” value ([13]; preemergence, 31 g a.i./ha) was 94, the “ERICA plant response rating” value ([13]; preemergence, 62 g a.i./ha) was 95 and the “GLXMA plant response rating, 0 to 100 scale” value (shortened to “GLXMA plant response rating”) ([14]; postemergence, 8 g a.i./ha) was 3. The “GLXMA plant response rating” value ([14]; postemergence, 16 g a.i./ha) was 4, the “GLXMA plant response rating” value ([14]; postemergence, 31 g a.i./ha) was 9 and the “GLXMA plant response rating” value ([14]; postemergence, 62 g a.i./ha) was 6. The “GLXMA plant response rating” value ([14]; preemergence, 8 g a.i./ha) was 0, the “GLXMA plant response rating” value ([14]; preemergence, 16 g a.i./ha) was 0 and the “GLXMA plant response rating” value ([14]; preemergence, 31 g a.i./ha) was 0. The “GLXMA plant response rating” value ([14]; preemergence, 62 g a.i./ha) was 20.

From patent US12435044B2, “Pyridazinone herbicides and pyridazinone intermediates used to prepare a herbicide” (FMC Corporation, priority 2018, dated 2025)
